Results from the SangsterLogP compilation.

Experiment: method code SF-AS, from Ploquin, J.; Sparfel, L.; LeBaut, G.; Floc'h, R.; Welin, L.; Petit, Y.; Henry, N. (1974). Pyrophthalones. III. Properties of gamma-pyrophthalones. Eur J Med Chem, 9(5)526-533.
Conditions: pH 7.4

Row | SMILES | logD
1 | CC(C)N1C=CC(=C2C(=O)c3ccccc3C2=O)C=C1 | 2.44
2 | CCCN1C=CC(=C2C(=O)c3ccccc3C2=O)C=C1C | 2.63
3 | CC=CN1C=CC(=C2C(=O)c3ccccc3C2=O)C=C1 | 2.75
4 | CCCCCCCCCN1C=CC(=C2C(=O)c3ccccc3C2=O)C=C1 | 3.45
5 | CCN1C=CC(=C2C(=O)c3ccccc3C2=O)C=C1C | 2.34
6 | CC(C)CCCCCN1C=CC(=C2C(=O)c3ccccc3C2=O)C=C1 | 2.98
7 | CC=CN1C=CC(=C2C(=O)c3ccccc3C2=O)C=C1C | 2.6
8 | O=C1C(=C2C=CN(CC(O)CO)C=C2)C(=O)c2ccccc21 (centres undefined) | 1.36
9 | CC1=CC(=C2C(=O)c3ccccc3C2=O)C=CN1CC(C)C | 2.82
10 | CCCCCN1C=CC(=C2C(=O)c3ccccc3C2=O)C=C1 | 3.27
11 | O=C1C(=C2C=CN(CCc3ccccc3)C=C2)C(=O)c2ccccc21 | 3.3
12 | O=C1C(=C2C=CN(Cc3ccccc3)C=C2)C(=O)c2ccccc21 | 2.99
13 | CC1=CC(=C2C(=O)c3ccccc3C2=O)C=CN1C(C)C | 2.33
14 | CC1=CC(=C2C(=O)c3ccccc3C2=O)C=CN1C | 1.9
15 | CC1=CC(=C2C(=O)c3ccccc3C2=O)C=C(C)N1C | 2.5
16 | C=CCN1C=CC(=C2C(=O)c3ccccc3C2=O)C=C1C | 2.54

More lines, now with the values ahead:

Row | logD | SMILES
17 | 2.12 | CCN1C=CC(=C2C(=O)c3ccccc3C2=O)C=C1
18 | 2.11 | COCCN1C=CC(=C2C(=O)c3ccccc3C2=O)C=C1
19 | 3.05 | CCCCN1C=CC(=C2C(=O)c3ccccc3C2=O)C=C1
20 | 1.75 | CC(O)CN1C=CC(=C2C(=O)c3ccccc3C2=O)C=C1 (centres undefined)
21 | 1.6 | CN1C=CC(=C2C(=O)c3ccccc3C2=O)C=C1
22 | 2.64 | CCCN1C=CC(=C2C(=O)c3ccccc3C2=O)C=C1
23 | 2.46 | C=CCN1C=CC(=C2C(=O)c3ccccc3C2=O)C=C1
24 | 2.76 | CC(C)CN1C=CC(=C2C(=O)c3ccccc3C2=O)C=C1
